According to patent US20180244653A1, “SELECTIVE ALPHA-7 NICOTINIC RECEPTOR AGONISTS AND METHODS FOR MAKING AND USING THEM” (THE REGENTS OF THE UNIVERSITY OF CALIFORNIA, priority 2015, published 2018):
Values joined by “and” are separate entries in the source; they are usually repeats but may differ in a detail not shown here. Equal values may be shown once. “Also recorded” adds a separate entry of the source. Read-outs that look alike come from different tables or passages of the source.

Tests used:
α4β2-nAChRs = target: T1, α4β2-nAChRs (Homo sapiens, UniProt P17787+P43681); assay: FRET functional assay (agonist/antagonist) using LGIC-CNiFERs; type: cell-based; conditions: for Functional properties at α4β2-nAChRs (agonist / antagonist, type): functional screening and characterization; for EC50: read-out: EC50 ± SD, α4β2
T1 construct: expressed in transfected cells; host or cells: HEKtsA201 cells co-expressing TN-XXL

α7-nAChRs = target: T2, α7-nAChRs (Homo sapiens, UniProt P36544); assay: as above; type: cell-based
T2 construct: expressed in transfected cells; host or cells: HEKtsA201 cells co-expressing TN-XXL

[1] = test system: physiologically induced amnesia mice; assay: ORT with 24 h time delay (natural memory loss); type: in vivo; conditions: i.p.; for Discrimination index / cognition enhancement, ORT time delay vs control group: 24 h delay; for Minimum effective dose, RT^§: physiologically induced amnesia (memory retention) model, ICR mice
Procedure: Both compounds were further evaluated on a physiologic amnesic model by using ORT with 24 h time delay to induce natural memory loss in mice. The appropriate time delay causing amnesia was initially selected by varying delay times (24, 48, and 72 h) between sample and test phase that have identical and different objects, respectively. […] Therefore, 24 h was used as the time delay between sample and test phase.
FIG. 27 illustrates exploration time to familiar (F) and novel (N) objects in test phase of ORT following a time delay. Each mouse was allowed to explore an open field apparatus for 5 min in a habituation phase one day before a sample phase. In the test day, vehicle (SH) and test compounds IND8, QND8 and PNU were injected 1 h before measurement of exploration time. Each mouse was allowed to explore 2 identical objects in the sample phase for 5 min. On the next day (24 h), one of the objects was changed to a new one and the mouse was allowed to explore these objects for 5 min. The exploration time of these objects was recorded. Data are presented as means±SE, n=6-8 mice/group. **p<0.01, ***p<0.001 vs exploration time of familiar object, paired student's t-test.
The DI was calculated and compared with the control group to evaluate IND8, QND8, and PNU-282987 enhancement of cognitive function. Data are shown in FIG. 28, which illustrates discrimination index (TN−TF/TN+TF) of each compound in the test phase of ORT with time delay protocol. There was a significant difference in DI (F6,43=6.097, p<0.001, n=6-8 mice/group). **p<0.01, ***p<0.001 vs vehicle group (SH), one-way ANOVA with Fisher's LSD post hoc comparison.
The apparatus used in this experiment was the same as ORT test. This experiment was divided into 2 parts directed to dose finding and establishing mechanism of action.
For dose finding protocol, the mice were randomly divided into different treatment groups, a control group receiving a vehicle and tested groups receiving PNU-282987 at 3, 10 mg/kg, and IND8, QND8 for 10, 25 μmol/kg, single dose. They were allowed to freely explore the open field apparatus for 5 min for habituation in a day before the experiment (day 1). On the test day (day 2), the test compound was injected 1 h before the sample phase. In this phase, mice were placed in the apparatus to explore two identical objects. On the next day (day 3), one object was changed to a new one and mice were allowed to explore these objects for 5 min in the test phase. For proving cognitive enhancement mediated through α7-nAChRs, the protocol was the same as mentioned above except MLA (3 mg/kg), selective α7-nAChR antagonist, was injected 5 min before test compounds in the sample phase (day 2) to block the cognitive enhancement effect from test compounds. The dose of test compounds is selected from the effective dose from the former experiment. The exploration time of each object was recorded if the nose of mouse came within 3 cm or touched the objects. The discrimination index (DI) was calculated by using (TN−TF)/(TN+TF); TN and TF represented exploration time of new and familiar objects, respectively.

[2] = in presence of 10 μM PNU-120596, * partial agonist, >10 = did not pass initial screen, read-out: Agonist EC50 ± SD, α7
[3] = >10 = did not pass initial screen

T2 sequence (P36544 23-502): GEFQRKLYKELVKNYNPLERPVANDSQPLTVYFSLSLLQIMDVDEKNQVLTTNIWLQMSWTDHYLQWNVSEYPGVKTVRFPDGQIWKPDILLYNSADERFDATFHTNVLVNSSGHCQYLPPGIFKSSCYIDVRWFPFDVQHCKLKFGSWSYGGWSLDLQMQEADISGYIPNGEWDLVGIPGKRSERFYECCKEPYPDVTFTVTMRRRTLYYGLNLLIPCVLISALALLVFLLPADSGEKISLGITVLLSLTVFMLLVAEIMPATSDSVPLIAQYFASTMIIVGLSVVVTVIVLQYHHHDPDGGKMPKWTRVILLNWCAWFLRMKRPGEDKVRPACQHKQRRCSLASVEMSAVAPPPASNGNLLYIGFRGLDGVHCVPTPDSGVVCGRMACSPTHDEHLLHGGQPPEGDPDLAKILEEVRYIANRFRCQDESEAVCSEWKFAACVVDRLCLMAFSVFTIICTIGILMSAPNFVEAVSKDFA
T1 sequence (P43681 29-627 limits assumed): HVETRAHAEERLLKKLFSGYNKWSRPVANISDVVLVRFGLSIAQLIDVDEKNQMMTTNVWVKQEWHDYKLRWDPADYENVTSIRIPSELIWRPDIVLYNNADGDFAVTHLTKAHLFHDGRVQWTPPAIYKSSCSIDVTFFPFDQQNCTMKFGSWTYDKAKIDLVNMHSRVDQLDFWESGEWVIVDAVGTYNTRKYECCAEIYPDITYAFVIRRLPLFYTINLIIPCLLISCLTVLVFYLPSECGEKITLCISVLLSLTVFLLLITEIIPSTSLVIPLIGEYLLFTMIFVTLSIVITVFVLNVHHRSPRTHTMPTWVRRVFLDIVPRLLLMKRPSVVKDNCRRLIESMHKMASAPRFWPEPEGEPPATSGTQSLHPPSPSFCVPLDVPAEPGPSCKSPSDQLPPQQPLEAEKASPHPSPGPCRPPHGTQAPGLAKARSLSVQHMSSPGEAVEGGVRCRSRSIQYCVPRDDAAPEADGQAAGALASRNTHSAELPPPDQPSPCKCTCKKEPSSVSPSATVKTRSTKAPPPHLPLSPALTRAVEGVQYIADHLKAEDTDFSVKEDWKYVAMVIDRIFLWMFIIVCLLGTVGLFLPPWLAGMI
T1 sequence (P17787 26-502): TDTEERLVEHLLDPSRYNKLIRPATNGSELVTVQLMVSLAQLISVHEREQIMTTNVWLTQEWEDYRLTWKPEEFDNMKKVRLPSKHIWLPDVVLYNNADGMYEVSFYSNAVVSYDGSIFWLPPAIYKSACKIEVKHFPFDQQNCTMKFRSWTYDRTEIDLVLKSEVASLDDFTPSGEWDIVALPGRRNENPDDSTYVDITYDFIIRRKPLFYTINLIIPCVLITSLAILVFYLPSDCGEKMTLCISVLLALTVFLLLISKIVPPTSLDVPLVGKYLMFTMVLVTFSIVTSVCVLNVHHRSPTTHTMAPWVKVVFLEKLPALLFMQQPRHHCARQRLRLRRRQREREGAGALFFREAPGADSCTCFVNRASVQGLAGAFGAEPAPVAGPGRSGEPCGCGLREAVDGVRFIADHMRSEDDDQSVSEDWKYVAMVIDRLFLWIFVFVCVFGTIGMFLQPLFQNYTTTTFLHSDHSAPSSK

Row | SMILES | Antagonist KA ± SD, α4β2 (α4β2-nAChRs; competitive antagonist (^C), >10 = did not pass initial screen, vs (±)-epibatidine) | Functional properties at α4β2-nAChRs (agonist / antagonist, type) (α4β2-nAChRs) | Fold increase in α7-nAChR agonist potency over lead compound TTIn-1 (α7-nAChRs) [fold] | EC50 (α7-nAChRs; [2]) | Discrimination index / cognition enhancement, ORT time delay vs control group [1] | Minimum effective dose, RT^§ [1] [µmol/kg] | EC50 (α4β2-nAChRs; [3]) [nM] | Kd (α4β2-nAChRs; Antagonist KA ± SD, α4β2, competitive antagonist (^C), >10 = did not pass initial screen, vs (±)-epibatidine) [nM] | EC50 (α7-nAChRs; Agonist EC50 ± SD, α7) [nM] | Kd (α4β2-nAChRs; competitive antagonist (^C), >10 = did not pass initial screen, vs (±)-epibatidine, read-out: Antagonist KA ± SD, α4β2) [nM]
1 | Oc1ccc(-c2cn(C3CN4CCC3CC4)nn2)cc1 (stereo not drawn) [QND8, 3-(4-hydroxyphenyl-1,2,3-triazol-1-yl) quinuclidine] | 6.2 ± 1.7^C μM | competitive antagonism | 20 | 40 nM and 37 nM | able to enhance cognition; also recorded: significantly higher than that of control group | 10 | – | – | – | –
2 | O=C(N[C@H]1CN2CCC1CC2)c1ccc(Cl)cc1 [PNU-282987, reference compound] | – | – | – | – | able to enhance cognition; also recorded: significantly higher than that of control group | 10 | > 10000 | > 10000 | 110 ± 10 | –
3 | c1cc2cc(-c3cn(C4CN5CCC4CC5)nn3)ccc2[nH]1 (stereo not drawn) [IND8, 5-((Quinuclid-3-yl)-1H-1,2,3-triazol-4-yl)-1H-indole] | – | did not elicit agonist or antagonist properties | 20 | 30 nM and 28 nM | able to enhance cognition; also recorded: significantly higher than that of control group | 10 | > 10000 | – | – | >10000
